The structures appear in SMILES notation. Some results are limits rather than exact numbers.

T2 sequence (P28482 8-360): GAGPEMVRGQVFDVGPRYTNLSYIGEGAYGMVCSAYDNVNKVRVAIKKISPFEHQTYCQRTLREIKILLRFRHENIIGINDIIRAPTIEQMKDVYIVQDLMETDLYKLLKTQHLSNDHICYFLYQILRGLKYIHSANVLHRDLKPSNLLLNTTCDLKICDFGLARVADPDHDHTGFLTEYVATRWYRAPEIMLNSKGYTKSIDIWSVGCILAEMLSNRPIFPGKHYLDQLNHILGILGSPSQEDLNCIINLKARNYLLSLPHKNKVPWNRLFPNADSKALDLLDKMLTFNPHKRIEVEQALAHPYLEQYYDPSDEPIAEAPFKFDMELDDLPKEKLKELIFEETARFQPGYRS
T1 sequence (P28482 8-360): as above

One assay has as its target T1, human ERK-2 (Mitogen Activated Kinase 1) (Homo sapiens, UniProt P28482).
T1 construct: n-terminal 6-His fusion protein in E. coli and corresponding to aa 8-360; 6-His (N); made in house; host or cells: E. coli
The assay can be described thus: ERK-2 Enzymatic Assay (Example 2). The format is biochemical. Conditions: Omnia peptide S/T17, 25 μM ATP, read-out: ERK Inhibition IC50. The procedure: Compounds were tested in an enzymatic assay using human ERK-2 (Mitogen Activated Kinase 1), recombinantly expressed as an n-terminal 6-His fusion protein in E. coli and corresponding to aa 8-360. The substrate used was the fluorescent Omnia peptide S/T17 (Invitrogen of Carlsbad, Calif.; Cat. KNZ1171C). Test compounds were diluted in DMSO in 3-fold serial dilutions at 100× final concentrations. […] The assay was run at ambient temperature in a white 384-well polypropylene plate (Nunc, Inc of Naperville, Ill.; Cat. 267462) collecting data every 50 seconds for approximately 30 minutes on an Envision plate reader (PerkinElmer, Inc. of Waltham, Mass.); Excitation 340 nm/Emission 495 nm. The data collected from each well was fit to a straight line and the resulting rates were used to calculate percent of control. Percent of control was plotted against compound concentration and IC50 values were determined using a four-parameter fit. Representative date is in TABLE 2 (infra).
Usually IC50 stands for the concentration that inhibits the measured activity by half. As for `Cn1nccc1C(=O)NCc1cncc(-c2c[nH]c3ncc(-c4cn[nH]c4)nc23)c1` [II-9, 2-methyl-2H-pyrazole-3-carboxylic acid {5-[2-(1H-pyrazol-4-yl)-5H-pyrrolo[2,3-b]pyrazin-7-yl]-pyridin-3-ylmethyl}-amide], the half-maximal inhibitory concentration (IC50) was found to be 144 nM.

A further assay has as its target T2, human ERK-2 (Homo sapiens, UniProt P28482).
T2 construct: n-terminal 6-His fusion protein in E. coli and corresponding to aa 8-360; 6-His (N); made in house; host or cells: E. coli
The assay can be described thus: Labchip Kinase ERK Assay (Example 3). Conditions: LabChip Erk Assay (footnote 2), 25 μM ATP, Caliper LabChip 3000; read-out: ERK Inhibition IC50. The format is biochemical. The procedure:
Compounds were tested in an enzymatic assay using human ERK-2 recombinantly expressed as an n-terminal 6-His fusion protein in E. coli and corresponding to aa 8-360. The substrate used was 5FAM-IPTSPITTTYFFFKKK-COOH (Caliper cat #760352). Test compounds were diluted in DMSO in 3-fold serial dilutions at 100× final concentrations. […] The assay was run at ambient temperature in a white 384-well polypropylene plate (Nunc, Inc of Naperville, Ill.; Cat. 267462) for 60 minutes then stopped by addition of EDTA. Percent substrate phosphorylated was determined by microfluidic separation using a Caliper LabChip 3000 instrument. Percent inhibition was plotted against compound concentration and IC50 values were determined using a four-parameter fit.
`Cc1cc(-c2cnc3[nH]cc(-c4cnn(Cc5cccc(F)c5)c4)c3n2)ccn1` [I-12, 7-[1-(3-fluoro-benzyl)-1H-pyrazol-4-yl]-2-(2-methyl-pyridin-4-yl)-5H-pyrrolo[2,3-b]pyrazine]: the IC50 worked out at 22.1 nM.

As to `Cc1nn(C)c(C)c1-c1cnc2[nH]cc(-c3cnn(Cc4ccccc4)c3)c2n1` [I-13, 7-(1-benzyl-1H-pyrazol-4-yl)-2-(1,3,5-trimethyl-1H-pyrazol-4-yl)-5H-pyrrolo[2,3-b]pyrazine], the IC50 came out at 105 nM. The same measure, in the same setting: the value for `Cc1noc(C)c1-c1cnc2[nH]cc(-c3cnn(Cc4ccccc4)c3)c2n1` [I-14, 7-(1-benzyl-1H-pyrazol-4-yl)-2-(3,5-dimethyl-isoxazol-4-yl)-5H-pyrrolo[2,3-b]pyrazine] was 110 nM; that for `c1ccc(Cn2cc(-c3c[nH]c4ncc(-c5ccc6cn[nH]c6c5)nc34)cn2)cc1` [I-19, 7-(1-benzyl-1H-pyrazol-4-yl)-2-(1H-indazol-6-yl)-5H-pyrrolo[2,3-b]pyrazine] was 343 nM; that for `Cc1[nH]ncc1-c1cnc2[nH]cc(-c3cnn(Cc4cccc(OC(F)(F)F)c4)c3)c2n1` [I-22, 2-(5-methyl-1H-pyrazol-4-yl)-7-[1-(3-trifluoromethoxy-benzyl)-1H-pyrazol-4-yl]-5H-pyrrolo[2,3-b]pyrazine] was 14.9 nM.

Take `c1cncc(Cn2cc(-c3c[nH]c4ncc(-c5ccncc5)nc34)cn2)c1` [I-23, 2-pyridin-4-yl-7-(1-pyridin-3-ylmethyl-1H-pyrazol-4-yl)-5H-pyrrolo[2,3-b]pyrazine]: the half-inhibitory concentration (IC50) stood at 65.8 nM.

Consider `Cc1cc(-c2c[nH]c3ncc(-c4ccncc4)nc23)cnc1F` [II-1, 7-(6-fluoro-5-methyl-pyridin-3-yl)-2-pyridin-4-yl-5H-pyrrolo[2,3-b]pyrazine], for which the IC50 is 53.1 nM. On the same count and under the same terms, with `Cc1cc(-c2c[nH]c3ncc(-c4ccncc4)nc23)cnc1Cl` [II-6, 7-(6-chloro-5-methyl-pyridin-3-yl)-2-pyridin-4-yl-5H-pyrrolo[2,3-b]pyrazine] the figure was 47.8 nM.

A further assay concerns PMA-stimulated P90RSK(Ser380) phosphorylation in HepG2 cells. The assay can be described thus: Cellular P90RSK(Ser380) Phosphorylation Assay (Example 4). Type of assay: cell-based. To be noted: Homo sapiens, 1.5 hour compound incubation, PMA 100 ng/mL, normalized to GAPDH, read-out: RSK Inhibition IC50. The procedure: Cellular P90RSK(Ser380) Phosphorylation Assay
Inhibition of PMA-stimulated P90RSK(Ser380) phosphorylation was determined by the following in vitro cellular mechanistic assay, which comprises incubating cells with a compound for 1.5 hours and quantifying fluorescent pP90RSK(Ser380) signal on fixed cells and normalizing to GAPDH signal.
Materials and Methods: HepG2 cells were obtained from ATCC and grown in DMEM supplemented with 10% fetal bovine serum. Cells were plated in 96-well plates at 35,000 cells/well and allowed to attach overnight at 37° C./5% CO2. Diluted compounds were then added at a final concentration of 0.5% DMSO. After 1.5 hour compound incubation, cells were stimulated with the addition of PMA (phorbol 12-myristate 13-acetate) at a final concentration of 100 ng/mL; the PMA stimulation was a 30-minute incubation at 37° C./5% CO2. After the 30-minute PMA stimulation, cells were washed with PBS and fixed in 3.7% formaldehyde in PBS at room temperature for 15-20 minutes. This was followed by another wash in PBS and then permeabilization in 100% MeOH at room temperature for 10-15 minutes. Following the permeabilization incubation, cells were washed in PBS/0.05% Tween-20, followed by a block in Odyssey blocking buffer (LI-COR Biosciences) for at least 1 hour. Antibodies to phosphorylated P90RSK(Ser380) (Cell Signaling #9335, rabbit monoclonal) and GAPDH (Fitzgerald 10R-G109a, mouse monoclonal) were added to the cells and incubated overnight at 4° C. pP90RSK(Ser380) antibody was used at a 1:250 dilution; GAPDH was used at a 1:10,000 dilution. After washing with PBS/0.05% Tween-20, the cells were incubated with fluorescently-labeled secondary antibodies (Anti-rabbit-Alexa Flour680, Invitrogen Cat#A21109; Anti-mouse-IRDye800CW, Rockland Inc. Cat#610-131-121) for 1 hour. Both secondary antibodies were used at a 1:1000 dilution. Cells were then washed and analyzed for fluorescence at both wavelengths using the Odyssey Infrared Imaging System (LI-COR Biosciences). Phosphorylated P90RSK(Ser380) signal was normalized to GAPDH signal. Representative date is in TABLE 2 (infra).
Take `Cn1nccc1C(=O)NCc1cncc(-c2c[nH]c3ncc(-c4cn[nH]c4)nc23)c1` [II-9, 2-methyl-2H-pyrazole-3-carboxylic acid {5-[2-(1H-pyrazol-4-yl)-5H-pyrrolo[2,3-b]pyrazin-7-yl]-pyridin-3-ylmethyl}-amide]: the IC50 was not below 50000 nM.

These data come from patent US9382257B2, “Substituted pyrrolo[2,3-b]pyrazines as serine/threonine kinase inhibitors” (Genentech, Inc., priority 2002, dated 2016).
